The record followed here is ChEMBL document CHEMBL5728357, “Small molecule inhibitors of lactate dehydrogenase and methods of use thereof” (2021).

SMILES strings stand for the structures. Values joined by “and” are separate entries in the source; they are usually repeats but may differ in a detail not shown here. Equal entries are not always repeated.

The test can be described thus: Biochemical Assay: Test compounds were placed in a Greiner Bio-One (Monroe, N.C.) 1536-well black solid bottom assay plate. 200 millimolar (mM) Tris HCl, pH 7.4, 100 micromolar […] EDTA and 0.01% TWEEN-20™, final concentration, was used as the assay buffer. The LDHA reagent was 2 nanomolar (nM) Human LDHA (Meridian Life Science, Inc., Memphis, Tenn.), final concentration, in assay buffer.
`N[S+](=O)([O-])c1ccc(Cc2c(-c3ccc(F)c(-c4ccc(F)cc4)c3)nn(-c3nc(C(=O)O)cs3)c2CC2CC2)c(F)c1` came in with an IC50 of less than 100 nM.

In the case of `COc1cccc(-c2cccc(-c3nn(-c4nc(C(=O)O)cs4)c(C4CC4)c3Cc3ccc([SH+](N)[O-])c(F)c3)c2)c1` (stereo not given), the IC50 was less than 100 nM.

Take `CCOC(=O)c1csc(-n2nc(-c3ccc(F)c(C#CC4CCCC4)c3)c(Cc3cccc([S+](N)(=O)[O-])c3)c2CC2CC2)n1`: the IC50 is greater than 57000 nM.

The compound `NS(=O)(=O)c1ccc(Cc2c(-c3cccc(-c4ccccc4)c3)nn(-c3nc(C(=O)O)cs3)c2CCC2CC2)cc1` registered an IC50 of less than 100 nM.

As for `NS(=O)(=O)c1ccc(Cc2c(CC3CC3)nn(-c3nc(OC=O)cs3)c2-c2cc(F)cc(-c3cccc(F)c3)c2)cc1`, the IC50 result is “in the range around 29000 nM”.

`Cc1ccc(-c2cccc(-c3nn(-c4nc(C(=O)O)cs4)c(CC4CC4)c3Cc3ccc([SH+](N)[O-])cc3F)c2)cc1` (stereo not given) came in with an IC50 of less than 100 nM.

In the case of `CCOC(=O)c1csc(-n2nc(-c3cccc(-c4ccc(C)cc4)c3)c(Cc3ccc([SH+](=O)[O-])c(F)c3)c2CC2CC2)n1`, the IC50 entry is “in the range around 29000 nM and > 57000 nM”.

In turn, `N[S+](=O)([O-])c1ccc(Cc2c(-c3ccc(F)c(C(F)(F)F)c3)nn(-c3nc(C(=O)O)cs3)c2CC2CC2)cc1F` returned an IC50 of less than 100 nM.

Compound `C/C=C/c1cc(-c2nn(-c3nc(C(=O)O)cs3)c(CC3CC3)c2Cc2ccc([S+](N)(=O)[O-])c(F)c2)ccc1F` gave an IC50 of less than 100 nM.

On to `CC(C)=Cc1cc(-c2nn(-c3nc(C(=O)O)cs3)c(CC3CC3)c2Cc2ccc([S+](N)(=O)[O-])c(F)c2)ccc1F`, for which the IC50 is less than 100 nM.

Consider `Cc1ccc(-c2cc(-c3nn(-c4nc(C(=O)O)cs4)c(CC4CC4)c3Cc3ccc([SH+](N)[O-])c(F)c3)ccc2F)cc1` (stereo not given), for which the IC50 is less than 100 nM.

`N[S+](=O)([O-])c1ccc(Cc2c(-c3ccc(F)c(/C=C/C4CC4)c3)nn(-c3nc(C(=O)O)cs3)c2CC2CC2)cc1F` showed an IC50 of less than 100 nM.

The compound `C=C(C)c1cc(-c2nn(-c3nc(C(=O)O)cs3)c(CC3CC3)c2Cc2ccc([S+](N)(=O)[O-])c(F)c2)ccc1F` displayed an IC50 of less than 100 nM.

As to `N[S+](=O)([O-])c1ccc(Cc2c(-c3ccc(F)c(/C=C/C4CCCC4)c3)nn(-c3nc(C(=O)O)cs3)c2CC2CC2)cc1F`, the IC50 is less than 100 nM.

In the case of `CC#Cc1cccc(-c2nn(-c3ncc(C(=O)OCC)s3)c(CC3CC3)c2Cc2ccc([SH+](N)[O-])c(F)c2)c1` (stereo not given), the IC50 entry was “in the range around 29000 nM”.

The IC50 is the concentration at which inhibition is half-maximal. Read a high IC50 as a need for much substance.
